A word on the Kd: it is the equilibrium constant for the complex coming apart. As usually defined, the IC50 is the concentration that inhibits the measured activity by half. The term CC50 denotes the concentration giving 50% cytotoxicity. By half-life is commonly meant the time in which the quantity being followed falls by half. Usually Ki stands for a dissociation constant, usually derived from enzyme kinetics or from competition with a known ligand. As a reminder, the IC90 is the concentration needed for an effect of 90%. As usually defined, the inhibition is the relative decrease from the control value, in per cent.

Data set [1] has as its target T1, DNA polymerase subunit gamma-1 (Homo sapiens) (UniProt P54098).
T1 sequence (whole entry): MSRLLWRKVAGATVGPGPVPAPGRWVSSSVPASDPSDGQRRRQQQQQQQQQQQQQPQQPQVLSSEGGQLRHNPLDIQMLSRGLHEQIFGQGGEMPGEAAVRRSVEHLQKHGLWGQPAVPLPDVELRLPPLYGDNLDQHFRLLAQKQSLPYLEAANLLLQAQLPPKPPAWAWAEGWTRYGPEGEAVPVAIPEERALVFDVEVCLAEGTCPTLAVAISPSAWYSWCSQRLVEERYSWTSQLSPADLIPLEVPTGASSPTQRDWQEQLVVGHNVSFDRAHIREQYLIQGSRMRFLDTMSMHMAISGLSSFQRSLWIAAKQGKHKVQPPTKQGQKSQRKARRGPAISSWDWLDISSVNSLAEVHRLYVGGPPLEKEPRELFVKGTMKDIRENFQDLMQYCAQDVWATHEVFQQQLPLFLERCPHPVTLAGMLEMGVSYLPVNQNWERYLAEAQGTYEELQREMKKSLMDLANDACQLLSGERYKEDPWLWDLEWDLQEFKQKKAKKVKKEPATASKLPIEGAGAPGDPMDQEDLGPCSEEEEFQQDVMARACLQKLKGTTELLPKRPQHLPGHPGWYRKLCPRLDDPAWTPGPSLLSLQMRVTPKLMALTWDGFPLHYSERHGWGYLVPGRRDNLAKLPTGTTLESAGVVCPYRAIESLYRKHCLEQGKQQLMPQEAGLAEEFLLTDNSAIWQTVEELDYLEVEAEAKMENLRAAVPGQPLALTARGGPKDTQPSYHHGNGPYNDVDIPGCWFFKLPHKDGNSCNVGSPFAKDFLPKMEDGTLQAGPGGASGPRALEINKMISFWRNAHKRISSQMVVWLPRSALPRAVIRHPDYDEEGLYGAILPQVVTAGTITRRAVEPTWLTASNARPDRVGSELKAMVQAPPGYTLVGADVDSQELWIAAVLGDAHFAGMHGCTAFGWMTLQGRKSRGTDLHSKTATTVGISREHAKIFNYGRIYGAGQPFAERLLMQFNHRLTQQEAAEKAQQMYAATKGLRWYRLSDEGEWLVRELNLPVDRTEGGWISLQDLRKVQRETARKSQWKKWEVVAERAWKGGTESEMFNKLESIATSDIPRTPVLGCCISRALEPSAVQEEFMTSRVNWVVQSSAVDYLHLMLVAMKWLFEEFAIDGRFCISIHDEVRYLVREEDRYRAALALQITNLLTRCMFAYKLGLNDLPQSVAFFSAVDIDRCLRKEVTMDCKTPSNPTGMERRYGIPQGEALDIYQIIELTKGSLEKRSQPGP
The data set can be described thus: Binding affinity to human DNA polymerase gamma assessed as polymerization rate.

Data set [2] deals with T2, DNA polymerase subunit gamma-1 (Homo sapiens, UniProt P54098).
T2 sequence (P54098 whole entry): T1 sequence (whole entry)
The data set is described as follows: Binding affinity to human DNA polymerase gamma assessed as dissociation constant.

In data set [3] the target is T1, DNA polymerase subunit gamma-1 (Homo sapiens). The data set can be described thus: Ratio of K for biding affinity to human DNA polymerase gamma assessed as polymerization rate to Kd for binding affinity to human DNA polymerase gamma.
Data set [4] concerns Human immunodeficiency virus 1. The data set can be described thus: Antiviral activity against HIV-1 infected in PBMC (unknown origin) assessed as inhibition of viral replication by ELISA. The format is functional, organism-based. Particulars: Human immunodeficiency virus 1, PBMC. For orientation: In an ELISA, binding on a coated surface is turned into a signal by an enzyme label.

Data set [5] is described as follows: Inhibition of HIV integrase. Further details: species or system Human immunodeficiency virus.
Data set [6] addresses C-C chemokine receptor type 5 (Homo sapiens, UniProt P51681). The data set can be described thus: Displacement of [125I]MIP-1alpha from CCR5 receptor (unknown origin) expressed in HEK293 cells. The class given is cell-based. (In general: In a radioligand displacement assay an active substance lowers the binding of a labelled ligand.)
The target in data set [7] is Cytochrome P450 2D6 (Homo sapiens, UniProt P10635). The data set is described as follows: Inhibition of CYP2D6 (unknown origin). The format is ADME.
Data set [8] concerns Human immunodeficiency virus 1. The data set can be described thus: Antiviral activity against HIV-1 LAV infected in human CEM cells. The format is functional, organism-based. Particulars: Human immunodeficiency virus 1, LAV, CCRF-CEM.
Data set [9] can be described thus: Cytotoxicity against human CEM cells measured after 6 days. Particulars: CEM cells (CCRF-CEM).
For data set [10], the target named is Human immunodeficiency virus type 1 Gag protein (Human immunodeficiency virus 1, UniProt Q77YG1). The data set can be described thus: Binding affinity to HIV1 Gag assessed as dissociation constant.
Data set [11] deals with Human immunodeficiency virus 1. The data set is described as follows: Antiviral activity against HIV-1 infected in human PBMC. Particulars: Human immunodeficiency virus 1, PBMC. The class given is functional, organism-based.
Data set [12] can be described thus: Metabolic stability in rhesus monkey hepatocytes assessed as half-life. The format is ADME, cell-based, Macaca mulatta, Hepatocyte.
Data set [13] addresses Human immunodeficiency virus type 1 protease (Human immunodeficiency virus 1, UniProt Q72874). The data set is described as follows: Inhibition of HIV-1 protease.
The subject of data set [14] is Human immunodeficiency virus 1. The data set is described as follows: Antiviral activity against HIV-1 IIIB infected in human H9 cells. The class given is functional, organism-based. Particulars: Human immunodeficiency virus 1, IIIB.
Data set [15] deals with Human immunodeficiency virus. The data set is described as follows: Antiviral activity agaisnt HIV BAL infected in human PM1 cells assessed as inhibition of viral replication. The format is functional, organism-based. Particulars: Human immunodeficiency virus 1, BAL.
The target in data set [16] is hERG (Homo sapiens, UniProt Q12809). The data set is described as follows: Inhibition of tritium labelled dofetilide binding to hERG expressed in HEK293 cells at 300 nM relative to control. The class given is toxicity, cell-based. Particulars: HEK293 cells that express hERG, probe tritium labelled dofetilide.
Data set [17] relates to Human immunodeficiency virus. The data set is described as follows: Antiviral activity against HIV IIIB infected in human MT4 cells. The format is functional, organism-based. Particulars: Human immunodeficiency virus 1, IIIB.
Data set [18] has as its system Human immunodeficiency virus 1. The data set can be described thus: Antiviral activity against HIV-1 NL4-3 infected in human MT4 cells assessed as reduction in virus induced cytopathic effect by XTT assay. The class given is functional, organism-based. Particulars: Human immunodeficiency virus 1, NL4-3, MT4. (Cytopathic effects are the visible damage that an infection or toxin causes in cultured cells.)

A short description of data set [19]: Inhibition of wildtype HIV Reverse transcriptase. Further details: species or system Human immunodeficiency virus.
Data set [20] has as its system Human immunodeficiency virus. The data set is described as follows: Antiviral activity against HIV. Particulars: Human immunodeficiency virus 1. The format is functional, organism-based.

The structures appear in SMILES notation.

C-C chemokine receptor type 5, sequence (P51681 whole entry): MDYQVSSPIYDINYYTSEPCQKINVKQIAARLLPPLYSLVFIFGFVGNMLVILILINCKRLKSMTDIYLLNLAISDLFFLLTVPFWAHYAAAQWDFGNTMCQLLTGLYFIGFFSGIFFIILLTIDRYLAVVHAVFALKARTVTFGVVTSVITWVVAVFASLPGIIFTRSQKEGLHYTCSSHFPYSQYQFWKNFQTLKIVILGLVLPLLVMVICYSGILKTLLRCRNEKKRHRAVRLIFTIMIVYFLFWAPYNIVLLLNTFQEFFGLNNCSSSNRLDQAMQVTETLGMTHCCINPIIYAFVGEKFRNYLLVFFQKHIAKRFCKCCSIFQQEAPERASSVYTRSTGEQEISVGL
Cytochrome P450 2D6, sequence (P10635 whole entry): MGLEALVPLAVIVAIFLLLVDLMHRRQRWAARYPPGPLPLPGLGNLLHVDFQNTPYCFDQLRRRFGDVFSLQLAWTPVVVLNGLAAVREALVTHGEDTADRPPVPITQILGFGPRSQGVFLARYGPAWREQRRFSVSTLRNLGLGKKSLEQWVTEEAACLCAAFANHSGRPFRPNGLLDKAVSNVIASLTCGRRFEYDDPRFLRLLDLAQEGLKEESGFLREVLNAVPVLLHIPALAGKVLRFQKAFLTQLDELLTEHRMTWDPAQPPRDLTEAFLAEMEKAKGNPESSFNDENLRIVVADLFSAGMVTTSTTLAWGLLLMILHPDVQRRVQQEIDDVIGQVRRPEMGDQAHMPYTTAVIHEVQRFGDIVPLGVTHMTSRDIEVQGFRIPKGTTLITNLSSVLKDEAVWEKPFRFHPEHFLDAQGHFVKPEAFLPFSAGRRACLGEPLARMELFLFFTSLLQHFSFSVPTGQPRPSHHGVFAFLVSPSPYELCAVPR
hERG, sequence (Q12809 whole entry): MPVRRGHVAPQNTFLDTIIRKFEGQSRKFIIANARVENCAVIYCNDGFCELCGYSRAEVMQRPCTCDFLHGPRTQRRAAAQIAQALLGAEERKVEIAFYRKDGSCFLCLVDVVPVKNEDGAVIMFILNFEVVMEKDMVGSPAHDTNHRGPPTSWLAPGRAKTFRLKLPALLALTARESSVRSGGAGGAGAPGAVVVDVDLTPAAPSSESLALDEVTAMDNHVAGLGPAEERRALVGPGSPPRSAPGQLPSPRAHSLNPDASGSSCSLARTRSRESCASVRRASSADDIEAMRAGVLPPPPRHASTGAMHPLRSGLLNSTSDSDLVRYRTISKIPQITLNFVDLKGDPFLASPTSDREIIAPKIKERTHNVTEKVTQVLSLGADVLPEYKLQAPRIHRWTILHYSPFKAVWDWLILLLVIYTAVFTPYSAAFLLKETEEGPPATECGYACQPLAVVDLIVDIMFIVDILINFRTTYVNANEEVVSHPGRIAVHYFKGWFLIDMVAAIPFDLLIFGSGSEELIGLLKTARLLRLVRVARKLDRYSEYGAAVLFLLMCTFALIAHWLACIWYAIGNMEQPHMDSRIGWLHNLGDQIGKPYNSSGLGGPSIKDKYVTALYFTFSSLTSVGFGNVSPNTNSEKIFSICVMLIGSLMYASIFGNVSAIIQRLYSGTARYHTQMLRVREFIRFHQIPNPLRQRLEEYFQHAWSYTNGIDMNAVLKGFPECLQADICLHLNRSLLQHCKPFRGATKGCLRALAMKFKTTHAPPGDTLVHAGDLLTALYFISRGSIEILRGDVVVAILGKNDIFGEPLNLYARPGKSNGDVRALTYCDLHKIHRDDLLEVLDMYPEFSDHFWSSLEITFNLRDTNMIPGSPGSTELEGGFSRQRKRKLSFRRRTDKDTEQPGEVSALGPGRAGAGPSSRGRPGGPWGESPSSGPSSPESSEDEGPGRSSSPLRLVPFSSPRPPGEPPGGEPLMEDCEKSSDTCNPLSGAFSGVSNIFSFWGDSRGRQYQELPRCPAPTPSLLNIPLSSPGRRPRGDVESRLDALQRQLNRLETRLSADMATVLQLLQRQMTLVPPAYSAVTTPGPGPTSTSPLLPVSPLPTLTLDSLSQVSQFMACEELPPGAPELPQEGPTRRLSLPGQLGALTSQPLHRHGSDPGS

With `Nc1nc(=O)n([C@@H]2CS[C@H](COP(=O)(O)OP(=O)(O)OP(=O)(O)O)O2)cc1F` [EMTRICITABINE 5'-TRIPHOSPHATE], the K in data set [1] is < 8.6 10^-3/s. The Kd in [2] was 63000 nM. For the same molecule, in [3], the Ratio was < 1.4 10^-4/µM/s.

With `Nc1ccn([C@H]2CC[C@@H](CO)O2)c(=O)n1` [ZALCITABINE], the IC50 in [4] amounted to 11 nM.

With `Nc1ccn([C@@H]2CS[C@H](COP(=O)(O)OP(=O)(O)OP(=O)(O)O)O2)c(=O)n1` [LAMIVUDINE TRIPHOSPHATE], the K in [1] came to 0.13 s⁻¹. In addition, the Kd in [2] is 13000 nM. Moreover, the Ratio in data set [3] came to 0.01 µM⁻¹ s⁻¹.

Turning to `C[C@@H]1CCO[C@H]2Cn3cc(C(=O)NCc4ccc(F)cc4F)c(=O)c(O)c3C(=O)N12` [DOLUTEGRAVIR], inhibition in [5] was half-maximal at 2.7 nM (IC50).

Regarding `Cc1nc2ccccc2n1C1CCN(CCC(c2ccccc2)c2ccccc2)CC1`, the IC50 in data set [6] came out at 4 nM; in [7] it was 710 nM.

As for `Nc1nc(=O)n(C2CSC(CO)O2)cc1F` (racemic) [EMTRICITABINE, (+/-)-], half-maximal inhibition in data set [8] (IC50) was put at 80 nM. The same molecule gave a CC50 at 144 h in data set [9] greater than 100000 nM.

Regarding `CC(C)(C#Cc1ccc(-c2ccc(Cl)c3c(NS(=O)(=O)C4CC4)nn(CC(F)F)c23)c([C@H](Cc2cc(F)cc(F)c2)NC(=O)Cn2nc(C(F)(F)F)c3c2C(F)(F)[C@@H]2C[C@H]32)n1)S(C)(=O)=O`, the Kd in data set [10] was 2.4 nM. The same molecule yielded an IC50 in data set [11] of 0.13 nM. In addition, the half-life in data set [12] was 130 h.

The molecule `CCC[C@]1(CCc2ccccc2)CC(O)=C([C@H](CC)c2cccc(NS(=O)(=O)c3ccc(C#N)cn3)c2)C(=O)O1` registered a Ki in data set [13] of 0.04 nM. For the same molecule, in [14], it took 110 nM to reach half-maximal inhibition (IC50) and the IC90 came out at 890 nM.

Molecule `Nc1nc(=O)n([C@H]2CS[C@@H](CO)O2)cc1F` gave an IC50 in [8] of 1400 nM. Moreover, the CC50 at 144 h in [9] is greater than 100000 nM.

As to `Cc1nc2cnccc2n1C1CCN(CCC(c2ccccc2)c2ccccc2)CC1`, half-maximal inhibition in [7] (IC50) required 40 nM.

In the case of `Cc1nc2ccccc2n1C1CCN(CC[C@H](NC(=O)C2CCC2)c2ccccc2)CC1`, the IC50 in data set [15] came out at 73 nM.

Regarding `Cc1nnc(C(C)C)n1C1CC2CCC(C1)N2CC[C@H](NC(=O)C1CCOCC1)c1ccccc1` (stereo partly drawn), the inhibition at 0.3 µM in [16] was 0%. Moreover, in data set [15], the IC90 was determined as 125 nM.

With `O=C1Nc2ccc(Cl)cc2[C@](C#Cc2ccccn2)(C2CC2)N1`, in data set [17], the IC50 came out at 9300 nM.

Turning to `Cc1[nH]c2ccccc2c1CC(=O)N[C@@H](Cc1ccccc1)C(=O)N(C)c1ccccn1`, the IC50 in data set [18] came to 800 nM.

As to `Cc1nnc(C(C)C)n1C1CC2CCC(C1)N2CC[C@H](NC(=O)C1CCC1)c1ccccc1` (stereo partly drawn), the IC90 in data set [15] is 8 nM.

Molecule `Cc1cc(C)c(-n2nnnc2SCC(=O)Nc2ccc(S(N)(=O)=O)cc2Cl)c(C)c1` registered an IC50 in data set [19] of 4.1 nM.

In data set [6], `Cc1nc2ccccc2n1C1CCN(CC[C@@H](NC(=O)c2ccccc2)c2ccccc2)CC1` gave an IC50 of 580 nM.

`O=C1Nc2ccc(Cl)cc2[C@@](C#Cc2ccccn2)(C2CC2)N1` showed an IC50 in data set [17] of 12 nM.

For the molecule `Cc1nnc(C(C)C)n1C1CC2CCC(C1)N2CC[C@H](NC(=O)CCC(F)(F)F)c1ccccc1` (stereo partly drawn), the IC90 in data set [15] stood at 14 nM.

On to `CCC(c1ccccc1)c1c(O)c2ccccc2oc1=O` (stereo not drawn) [PHENPROCOUMON], for which, in [20], the IC50 was determined as 100000 nM.

For the molecule `Cc1nnc(C(C)C)n1C1CC2CCC(C1)N2CC[C@H](NC(=O)C1CCCC1)c1ccccc1` (stereo partly drawn), in data set [15], the 90% effect concentration (IC90) came out at 1.6 nM.

For the origin of these results see ChEMBL document CHEMBL5634071, “Fluorine in anti-HIV drugs approved by FDA from 1981 to 2023” (Eur J Med Chem, 2023).
